Results from patent US20250215029A1 (Recludix Pharma, Inc., priority 2022, published 2025).

Target: T1, pY641-STAT6 in PBMC (Homo sapiens, UniProt P42226)
T1 construct: Cryopreserved Peripheral Blood Mononuclear Cells (PBMC) are from AllCells; host or cells: cryopreserved PBMC
T1 sequence (P42226 1-847): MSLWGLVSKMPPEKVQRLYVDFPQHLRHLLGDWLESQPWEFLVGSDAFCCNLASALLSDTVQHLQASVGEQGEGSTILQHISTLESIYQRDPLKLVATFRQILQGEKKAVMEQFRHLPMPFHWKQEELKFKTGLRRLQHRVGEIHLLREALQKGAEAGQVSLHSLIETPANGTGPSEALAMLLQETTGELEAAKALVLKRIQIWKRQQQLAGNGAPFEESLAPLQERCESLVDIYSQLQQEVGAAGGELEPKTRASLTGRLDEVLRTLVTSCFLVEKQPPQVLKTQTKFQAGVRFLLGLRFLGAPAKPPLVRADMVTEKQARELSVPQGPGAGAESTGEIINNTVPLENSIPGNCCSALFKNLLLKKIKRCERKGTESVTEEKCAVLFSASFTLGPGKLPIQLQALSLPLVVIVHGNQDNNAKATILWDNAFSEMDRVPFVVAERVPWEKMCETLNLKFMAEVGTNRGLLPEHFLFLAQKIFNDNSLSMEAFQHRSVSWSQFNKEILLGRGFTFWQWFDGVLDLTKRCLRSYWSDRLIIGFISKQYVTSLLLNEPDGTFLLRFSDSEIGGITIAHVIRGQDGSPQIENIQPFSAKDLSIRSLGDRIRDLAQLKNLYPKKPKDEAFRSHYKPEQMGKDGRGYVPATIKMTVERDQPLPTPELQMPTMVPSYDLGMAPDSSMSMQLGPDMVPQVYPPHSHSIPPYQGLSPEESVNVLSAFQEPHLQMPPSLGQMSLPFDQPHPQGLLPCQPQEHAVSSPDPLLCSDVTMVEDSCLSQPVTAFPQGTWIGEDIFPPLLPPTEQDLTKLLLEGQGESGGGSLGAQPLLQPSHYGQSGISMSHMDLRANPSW
Experiment: MSD-pSTAT-PBMC Assay (pSTAT6, IL-4 stimulated)
Type: cell-based
Conditions: STAT6, PBMC, compound 3 hrs, then 1 ng/mL IL-4 for 10 min; Table 115
Method in brief: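 Cells are preincubated with compound for 3 hrs, then stimulated for 10 min, IL-4 at 1 ng/mL driving STAT6 phosphorylation and IL-6 at 10 ng/mL driving STAT3. Phospho-STAT in lysates is quantified by MSD immunoassay, and IC50 is fitted after subtracting unstimulated wells.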

| Structure (SMILES) | IC50 |
| --- | --- |
| C[C@H](NP(=O)(Oc1ccccc1)[C@@H](F)c1ccc2sc(C(=O)N[C@H]3CCCC[C@H]4CC[C@@H](C(=O)N5C[C@@H](c6cccnc6)CC56CC6)N4C3=O)cc2c1)C(=O)OCC1COC1 (stereo partly drawn) [Compound 374, oxetan-3-ylmethyl (((R)-fluoro(2-(((3S,6S,10aS)-5-oxo-3-((R)-6-(pyridin-3-yl)-4-azaspiro[2.4]heptane-4-carbonyl)decahydropyrrolo[1,2-a]azocin-6-yl)carbamoyl)benzo [b]thiophen-5-yl)methyl)(phenoxy)phosphoryl)-L-alaninate] | < 100 nM |
| COCCOC(=O)[C@H](C)NP(=O)(Oc1ccccc1)[C@@H](F)c1ccc2sc(C(=O)N[C@H]3CCCC[C@H]4CC[C@@H](C(=O)N5C[C@H](c6ccccc6)[C@@H](C#N)C56CC6)N4C3=O)cc2c1 (stereo partly drawn) [Compound 375, 2-methoxyethyl (((R)-(2-(((3S,6S,10aS)-3-((6S,7R)-7-cyano-6-phenyl-4-azaspiro[2.4]heptane-4-carbonyl)-5-oxodecahydropyrrolo [1,2-a]azocin-6-yl)carbamoyl)benzo [b]thiophen-5-yl)fluoromethyl) (phenoxy)phosphoryl)-L-alaninate] | < 100 nM |
| COCCOC(=O)[C@H](COC)NP(=O)(Oc1ccccc1)[C@@H](F)c1ccc2sc(C(=O)N[C@H]3CCCC[C@H]4CC[C@@H](C(=O)N5C[C@H](c6ccccc6)[C@@H](C#N)C56CC6)N4C3=O)cc2c1 (stereo partly drawn) [Compound 376, 2-methoxyethyl N-(((R)-(2-(((3S,6S,10aS)-3-((6S,7R)-7-cyano-6-phenyl-4-azaspiro[2.4]heptane-4-carbonyl)-5-oxodecahydropyrrolo [1,2-a]azocin-6-yl)carbamoyl)benzo [b]thiophen-5-yl)fluoromethyl) (phenoxy)phosphoryl)-O-methyl-L-serinate] | < 100 nM |
| COCCOC(=O)[C@H](C)NP(=O)(Oc1ccccc1)[C@@H](F)c1ccc2sc(C(=O)N[C@H]3CCCC[C@H]4CC[C@@H](C(=O)N5C[C@@H](c6cccnc6)CC56CC6)N4C3=O)cc2c1 (stereo partly drawn) [Compound 378, 2-methoxyethyl (((R)-fluoro(2-(((3S,6S,10aS)-5-oxo-3-((R)-6-(pyridin-3-yl)-4-azaspiro[2.4]heptane-4-carbonyl)decahydropyrrolo[1,2-a]azocin-6-yl)carbamoyl)benzo [b]thiophen-5-yl)methyl)(phenoxy)phosphoryl)-L-alaninate] | < 100 nM |
| CCCOC(=O)[C@H](C)NP(=O)(Oc1ccccc1)[C@@H](F)c1ccc2sc(C(=O)N[C@H]3CCC[C@H]4CC[C@@H](C(=O)N5C[C@@H](c6cccnc6)CC56CC6)N4C3=O)cc2c1 (stereo partly drawn) [Compound 379, propyl (((R)-fluoro(2-(((3S,6S,9aS)-5-oxo-3-((R)-6-(pyridin-3-yl)-4-azaspiro[2.4]heptane-4-carbonyl)octahydro-1H-pyrrolo[1,2-a]azepin-6-yl)carbamoyl)benzo [b]thiophen-5-yl)methyl)(phenoxy)phosphoryl)-L-alaninate] | < 100 nM |
| CCCOC(=O)[C@H](COC)NP(=O)(Oc1ccccc1)[C@@H](F)c1ccc2sc(C(=O)N[C@H]3CCCC[C@H]4CC[C@@H](C(=O)N5C[C@@H](c6cccnc6)CC56CC6)N4C3=O)cc2c1 (stereo partly drawn) [Compound 384, propyl N-(((R)-fluoro(2-(((3S,6S,10aS)-5-oxo-3-((R)-6-(pyridin-3-yl)-4-azaspiro[2.4]heptane-4-carbonyl)decahydropyrrolo[1,2-a]azocin-6-yl)carbamoyl)benzo [b]thiophen-5-yl)methyl)(phenoxy)phosphoryl)-O-methyl-L-serinate] | < 100 nM |
| C[C@H](NP(=O)(Oc1ccccc1)[C@@H](F)c1ccc2sc(C(=O)N[C@H]3CCCC[C@H]4CC[C@@H](C(=O)N5C[C@@H](c6cccnc6)CC56CC6)N4C3=O)cc2c1)C(=O)OCc1ccccn1 (stereo partly drawn) [Compound 385, pyridin-2-ylmethyl (((R)-fluoro(2-(((3S,6S,10aS)-5-oxo-3-((R)-6-(pyridin-3-yl)-4-azaspiro[2.4]heptane-4-carbonyl)decahydropyrrolo[1,2-a]azocin-6-yl)carbamoyl)benzo [b]thiophen-5-yl)methyl)(phenoxy)phosphoryl)-L-alaninate] | < 100 nM |
| C[C@H](NP(=O)(Oc1ccccc1)[C@@H](F)c1ccc2sc(C(=O)N[C@H]3CCCC[C@H]4CC[C@@H](C(=O)N5C[C@@H](c6cccnc6)CC56CC6)N4C3=O)cc2c1)C(=O)OCC1(C)COC1 (stereo partly drawn) [Compound 386, (3-methyloxetan-3-yl)methyl (((R)-fluoro(2-(((3S,6S,10aS)-5-oxo-3-((R)-6-(pyridin-3-yl)-4-azaspiro[2.4]heptane-4-carbonyl)decahydropyrrolo[1,2-a]azocin-6-yl)carbamoyl)benzo [b]thiophen-5-yl)methyl)(phenoxy)phosphoryl)-L-alaninate] | < 100 nM |
| CCCOC(=O)[C@H](C)NP(=O)(Oc1ccccc1)[C@H](F)c1ccc2sc(C(=O)N[C@H]3CCC[C@H]4CC[C@@H](C(=O)N5C[C@@H](c6ccccc6)[C@H](C#N)C56CC6)N4C3=O)cc2c1 (stereo partly drawn) [Compound 387, propyl (((S)-(2-(((3S,6S,9aS)-3-((6R,7S)-7-cyano-6-phenyl-4-azaspiro[2.4]heptane-4-carbonyl)-5-oxooctahydro-1H-pyrrolo[1,2-a]azepin-6-yl)carbamoyl)benzo [b]thiophen-5-yl)fluoromethyl) (phenoxy)phosphoryl)-L-alaninate] | < 100 nM |
| CCCOC(=O)[C@H](C)NP(=O)(Oc1ccccc1)C(F)c1ccc2ccc(C(=O)N[C@H]3CCCC[C@H]4CC[C@@H](C(=O)N5CC(c6ccccc6)CC56CC6)N4C3=O)cc2c1 (stereo partly drawn) [Compound 411, propyl ((fluoro(7-(((3S,6S,10aS)-5-oxo-3-(6-phenyl-4-azaspiro[2.4]heptane-4-carbonyl)decahydropyrrolo[1,2-a]azocin-6-yl)carbamoyl)naphthalen-2-yl)methyl)(phenoxy)phosphoryl)-L-alaninate] | < 100 nM |
| CCCOC(=O)[C@H](C)NP(=O)(Oc1ccccc1)C(F)(F)c1ccc2ccc(C(=O)N[C@H]3CCCC[C@H]4CC[C@@H](C(=O)N5C[C@@H](c6cc[nH]c(=O)c6)CC56CC6)N4C3=O)cc2c1 (stereo partly drawn) [Compound 414, propyl ((difluoro(7-(((3S,6S,10aS)-5-oxo-3-((R)-6-(2-oxo-1,2-dihydropyridin-4-yl)-4-azaspiro[2.4]heptane-4-carbonyl)decahydropyrrolo[1,2-a]azocin-6-yl)carbamoyl)naphthalen-2-yl)methyl)(phenoxy)phosphoryl)-L-alaninate] | 100 to 1000 nM |
| CCCCOC(=O)[C@H](C)NP(=O)(Cc1ccc2ccc(C(=O)N[C@H]3CCCC[C@H]4CC[C@@H](C(=O)N5CC(c6ccccc6)CC56CC6)N4C3=O)cc2c1)Oc1cccc2ccccc12 (stereo partly drawn) [Compound 416, butyl ((naphthalen-1-yloxy)((7-(((3S,6S,10aS)-5-oxo-3-(6-phenyl-4-azaspiro[2.4]heptane-4-carbonyl)decahydropyrrolo[1,2-a]azocin-6-yl)carbamoyl)naphthalen-2-yl)methyl)phosphoryl)-L-alaninate] | > 3000 nM |
| CC(C)COC(=O)[C@H](C)NP(=O)(Oc1ccccc1)[C@@H](F)c1ccc2sc(C(=O)N[C@H]3CCCC[C@H]4CC[C@@H](C(=O)N5C[C@@H](c6cccnc6)CC56CC6)N4C3=O)cc2c1 (stereo partly drawn) [Compound 417, isobutyl (((R)-fluoro(2-(((3S,6S,10aS)-5-oxo-3-((R)-6-(pyridin-3-yl)-4-azaspiro[2.4]heptane-4-carbonyl)decahydropyrrolo[1,2-a]azocin-6-yl)carbamoyl)benzo [b]thiophen-5-yl)methyl)(phenoxy)phosphoryl)-L-alaninate] | < 100 nM |
| C[C@H](NP(=O)(Oc1ccccc1)[C@@H](F)c1ccc2sc(C(=O)N[C@H]3CCCC[C@H]4CC[C@@H](C(=O)N5C[C@@H](c6cccnc6)CC56CC6)N4C3=O)cc2c1)C(=O)OC1CC1 (stereo partly drawn) [Compound 418, cyclopropyl (((R)-fluoro(2-(((3S,6S,10aS)-5-oxo-3-((R)-6-(pyridin-3-yl)-4-azaspiro[2.4]heptane-4-carbonyl)decahydropyrrolo[1,2-a]azocin-6-yl)carbamoyl)benzo [b]thiophen-5-yl)methyl)(phenoxy)phosphoryl)-L-alaninate] | < 100 nM |
| CC(C)OC(=O)[C@H](C)NP(=O)(Cc1ccc2ccc(C(=O)N[C@H]3CCCC[C@H]4CC[C@@H](C(=O)N5C[C@H](c6cc[nH]c(=O)c6)CC56CC6)N4C3=O)cc2c1)Oc1ccccc1 (stereo partly drawn) [Compound 423, isopropyl (((7-(((3S,6S,10aS)-5-oxo-3-((S)-6-(2-oxo-1,2-dihydropyridin-4-yl)-4-azaspiro[2.4]heptane-4-carbonyl)decahydropyrrolo[1,2-a]azocin-6-yl)carbamoyl)naphthalen-2-yl)methyl)(phenoxy)phosphoryl)-L-alaninate] | 100 to 1000 nM |
